Assay results published in patent US4880841A, “Process of producing phenethylamine derivatives” (Yamanouchi Pharmaceutical Co., Ltd., priority 1980, dated 1989).
Like-named read-outs stand apart in the source and are kept apart here.

What was measured:
[1] = tested on: α-adrenergic; assay: α-Adrenergic blocking action: antagonism of the hypertensive response to phenylephrine in anesthetized rats; format: in vivo; settings: Rattus norvegicus, iv, read-out: α-blocking activity (rat) ED50 (mg/kg) i.v.
Experimental: (§1) The pharmacological effects of the compounds of this invention were determined by the following experiments. The effects of the typical compounds of this invention were compared with those of 5-{1-hydroxy-2-[2-(2-methoxyphenoxy)ethylamino]ethyl}-2-methylbenzenesulfonamide (referred to as "Compound A") which is one of the typical compounds disclosed in British Pat. No. 2,006,772 and phentolamine.
A. α-Adrenergic blocking action:
The blood pressure was measured in the rats anesthetized with urethane and treated with pentolinium. The effects of the test samples (intravenous injection) to antagonize the hypertensive response to phenylephrine (10 μg/Kg i.v.) were measured and the results were shown in Table I.

[2] = Antihypertensive effects in spontaneously hypertensive rats (oral administration, tail cuff method); format: in vivo; settings: 30 mg/kg P.O., spontaneously hypertensive rats with systolic blood pressure higher than 150 mmHg
Experimental: as §1
B. Antihypertensive effects in spontaneously hypertensive rats:
Oral administration:--The systolic blood pressure was measured indirectly by the tail cuff method using a programmed electrosphygmanometer (Nacro-Bio-Systems Inc., PE-300) on spontaneously hypertensive rats having the systolic blood pressure of higher than 150 mmHg, the results being shown in Table II.

[3] = rats anesthetized with urethane and treated with pentolinium, i.v. test sample, phenylephrine 10 μg/Kg i.v.

| SMILES | ED50 [1] | change in systolic blood pressure (mm Hg) at stated dose P.O. [2] | ED50 [1, 3] |
| --- | --- | --- | --- |
| CCOc1ccccc1OCCNC(C)Cc1ccc(OC)c(SC)c1.Cl (stereo not shown) [Example 8, 4-{2-[2-(2-Ethoxyphenoxy)ethylamino]-2-methylethyl}-2-(methylthio)anisole hydrochloride] | 0.0019 mg/kg | -48 mm Hg | – |
| Cc1ccc(N(CC2=NCCN2)c2cccc(O)c2)cc1 [phentolamine, reference compound] | – | -53 mm Hg | 0.061 mg/kg |
| COc1ccccc1OCCNCC(O)c1ccc(C)c([S+](C)[O-])c1.O=C(O)C(=O)O (stereo not drawn) [Example 5, α-{[2-(2-Methoxyphenoxy)ethylamino]methyl}-4-methyl-3-methylsulfinylbenzenemethanol oxalate] | – | -60 mm Hg | 0.045 mg/kg |
| COc1ccccc1OCCNCC(O)c1ccc(C)c(S(N)(=O)=O)c1 (stereo not shown) [Compound A, 5-{1-hydroxy-2-[2-(2-methoxyphenoxy)ethylamino]ethyl}-2-methylbenzenesulfonamide, reference compound] | – | -30 mm Hg | 0.032 mg/kg |
| CCOc1ccccc1OCCNC(C)Cc1ccc(OC)c(S(C)(=O)=O)c1.Cl (stereo not shown) [Example 12, 4-{2-[2-(2-Ethoxyphenoxy)ethylamino]-2-methylethyl}-2-(methylsulfonyl)anisole hydrochloride] | 0.00014 mg/kg | -58 mm Hg | – |
